# Test results as given in patent publication US20250066350A1, “AROMATIC HETEROCYCLE-SUBSTITUTED COMPOUNDS, AND PREPARATION METHOD THEREFOR AND USE THEREOF” (Innovstone Therapeutics Limited, priority 2021, published 2025).
# Key:
# SNU-601 cells = experiment: SNU-601 cell proliferation experiment (CellTiter-Glo, intracellular ATP); assay type: cell-based; settings: 120 h; SNU-601 human gastric cancer cells, 5 days; read-out: IC50 for inhibition of SNU-601 cell proliferation
# Method: The following method is used to evaluate the inhibitory effect of the compounds of the present disclosure on SNU-601 cell proliferation according to the IC50 values by means of detecting the intracellular ATP content. The experimental method is briefly described as follows:
# 1. SNU-601, human gastric cancer tumor cells (Co-bioer, CBP60507)
# SNU-601 cells were cultured in RPMI 1640 medium containing 10% FBS and passaged 2 to 3 times a week at a split ratio of 1:5 or 1:10. During passage, the cells were trypsinized and transferred to a centrifuge tube. The tube was centrifuged at 1000 rpm for 5 minutes, the supernatant medium was discarded, and fresh medium was added to resuspend the cells. 195 μL of cell suspension at a density of 5.128×10^3 cells/mL was added to a 96-well cell culture plate, and 200 μL of complete medium only was added to the periphery wells of the 96-well plate. The culture plate was incubated in an incubator for 24 hours (37° C., 5% CO2).
# The sample to be tested was diluted to 2 mM with DMSO, diluted 3-fold serially to 10 concentrations. Blank and control wells were set. 10 μL of the solution containing the compound to be tested prepared in gradient concentrations was added to 50 μL of fresh medium. 5 μL of the above culture medium solution containing the compound was added to the culture plate. The culture plate was incubated in an incubator for 5 days (37° C., 5% CO2). 50 μL of CellTiter-Glo reagent was added to each well of the 96-well cell culture plate after discarding 100 μL/well, and the plate was shaken at room temperature in the dark for 10 min. The chemiluminescent signal values were read in PHERAstar, and data were processed using GraphPad software.
# The inhibitory effect of the compounds of the present invention on SNU-601 cell proliferation can be determined by the test described above, and the measured IC50 values are shown in Table 3.
# ATR enzyme = ATR enzyme (Homo sapiens (Human), UniProt Q13535); experiment: Inhibitory effect on ATR enzyme (HTRF, phospho-P53); assay type: biochemical; settings: 90 minutes incubation, 150 nM ATP final; read-out: IC50 for ATR enzyme inhibition
# Sequence of ATR enzyme (Q13535 whole entry): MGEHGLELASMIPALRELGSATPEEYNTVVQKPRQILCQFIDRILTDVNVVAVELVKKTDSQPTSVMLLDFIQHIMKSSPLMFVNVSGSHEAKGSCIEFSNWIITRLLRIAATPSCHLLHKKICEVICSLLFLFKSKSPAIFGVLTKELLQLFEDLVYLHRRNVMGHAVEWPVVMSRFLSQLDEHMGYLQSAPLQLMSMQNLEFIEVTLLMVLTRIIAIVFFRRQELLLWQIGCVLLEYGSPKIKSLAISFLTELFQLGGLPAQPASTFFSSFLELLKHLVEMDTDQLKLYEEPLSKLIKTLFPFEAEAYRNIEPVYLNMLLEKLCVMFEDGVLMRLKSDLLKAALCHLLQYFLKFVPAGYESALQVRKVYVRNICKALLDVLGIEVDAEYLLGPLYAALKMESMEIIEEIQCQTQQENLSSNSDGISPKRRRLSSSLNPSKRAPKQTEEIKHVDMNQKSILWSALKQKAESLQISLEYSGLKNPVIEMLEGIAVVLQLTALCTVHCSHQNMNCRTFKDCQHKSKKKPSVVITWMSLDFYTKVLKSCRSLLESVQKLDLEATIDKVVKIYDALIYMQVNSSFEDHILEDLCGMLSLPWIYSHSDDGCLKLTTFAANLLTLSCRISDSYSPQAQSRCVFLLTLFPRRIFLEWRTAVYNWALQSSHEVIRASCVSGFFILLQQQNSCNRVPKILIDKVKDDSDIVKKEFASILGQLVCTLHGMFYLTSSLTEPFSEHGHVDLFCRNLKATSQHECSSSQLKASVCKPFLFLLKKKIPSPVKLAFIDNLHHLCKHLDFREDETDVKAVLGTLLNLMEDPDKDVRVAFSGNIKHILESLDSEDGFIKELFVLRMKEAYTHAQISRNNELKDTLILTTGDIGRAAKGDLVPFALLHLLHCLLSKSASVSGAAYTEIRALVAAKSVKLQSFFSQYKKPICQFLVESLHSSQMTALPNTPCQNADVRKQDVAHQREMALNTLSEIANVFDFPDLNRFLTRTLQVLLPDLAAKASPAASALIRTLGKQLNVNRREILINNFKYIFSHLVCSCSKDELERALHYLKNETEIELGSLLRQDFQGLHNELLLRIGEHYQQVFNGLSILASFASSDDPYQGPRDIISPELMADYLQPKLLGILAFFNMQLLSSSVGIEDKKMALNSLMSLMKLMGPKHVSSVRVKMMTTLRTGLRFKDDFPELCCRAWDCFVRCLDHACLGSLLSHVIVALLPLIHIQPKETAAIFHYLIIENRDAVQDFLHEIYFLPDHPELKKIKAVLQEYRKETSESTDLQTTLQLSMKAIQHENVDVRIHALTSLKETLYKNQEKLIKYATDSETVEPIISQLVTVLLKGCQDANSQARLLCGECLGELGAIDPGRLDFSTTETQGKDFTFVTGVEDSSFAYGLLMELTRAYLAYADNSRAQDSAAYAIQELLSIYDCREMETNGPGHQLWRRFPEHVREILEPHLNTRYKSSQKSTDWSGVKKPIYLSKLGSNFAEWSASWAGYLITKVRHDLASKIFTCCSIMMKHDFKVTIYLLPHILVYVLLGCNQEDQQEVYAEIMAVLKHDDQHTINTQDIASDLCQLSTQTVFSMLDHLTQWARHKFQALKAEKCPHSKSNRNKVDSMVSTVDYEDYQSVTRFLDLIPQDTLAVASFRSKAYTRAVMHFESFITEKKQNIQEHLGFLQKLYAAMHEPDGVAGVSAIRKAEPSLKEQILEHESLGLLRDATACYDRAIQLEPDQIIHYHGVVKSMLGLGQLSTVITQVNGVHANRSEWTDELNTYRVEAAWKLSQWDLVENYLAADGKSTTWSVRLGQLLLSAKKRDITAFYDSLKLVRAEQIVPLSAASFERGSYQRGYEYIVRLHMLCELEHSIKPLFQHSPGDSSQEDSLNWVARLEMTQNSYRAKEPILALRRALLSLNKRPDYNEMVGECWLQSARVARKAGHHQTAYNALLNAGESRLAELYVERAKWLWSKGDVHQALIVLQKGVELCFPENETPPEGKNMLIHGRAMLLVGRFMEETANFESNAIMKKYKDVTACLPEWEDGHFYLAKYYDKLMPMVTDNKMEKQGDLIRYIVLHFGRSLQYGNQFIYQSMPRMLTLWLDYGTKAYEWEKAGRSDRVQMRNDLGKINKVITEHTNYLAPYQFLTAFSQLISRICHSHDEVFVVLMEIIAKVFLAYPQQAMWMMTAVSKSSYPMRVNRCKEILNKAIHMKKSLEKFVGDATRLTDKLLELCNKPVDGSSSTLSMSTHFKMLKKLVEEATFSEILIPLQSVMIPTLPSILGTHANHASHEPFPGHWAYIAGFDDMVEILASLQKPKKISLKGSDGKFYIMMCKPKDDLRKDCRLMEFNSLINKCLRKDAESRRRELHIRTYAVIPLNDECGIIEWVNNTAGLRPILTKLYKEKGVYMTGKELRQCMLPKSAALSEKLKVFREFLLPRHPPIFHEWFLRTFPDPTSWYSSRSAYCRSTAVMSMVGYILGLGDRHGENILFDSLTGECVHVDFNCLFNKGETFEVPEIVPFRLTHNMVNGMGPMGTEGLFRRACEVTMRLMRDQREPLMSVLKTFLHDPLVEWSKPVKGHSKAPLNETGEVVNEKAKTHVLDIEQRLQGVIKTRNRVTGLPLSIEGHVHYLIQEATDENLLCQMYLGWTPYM
# Sequence of ATR enzyme (Q8WXE1 whole entry partner): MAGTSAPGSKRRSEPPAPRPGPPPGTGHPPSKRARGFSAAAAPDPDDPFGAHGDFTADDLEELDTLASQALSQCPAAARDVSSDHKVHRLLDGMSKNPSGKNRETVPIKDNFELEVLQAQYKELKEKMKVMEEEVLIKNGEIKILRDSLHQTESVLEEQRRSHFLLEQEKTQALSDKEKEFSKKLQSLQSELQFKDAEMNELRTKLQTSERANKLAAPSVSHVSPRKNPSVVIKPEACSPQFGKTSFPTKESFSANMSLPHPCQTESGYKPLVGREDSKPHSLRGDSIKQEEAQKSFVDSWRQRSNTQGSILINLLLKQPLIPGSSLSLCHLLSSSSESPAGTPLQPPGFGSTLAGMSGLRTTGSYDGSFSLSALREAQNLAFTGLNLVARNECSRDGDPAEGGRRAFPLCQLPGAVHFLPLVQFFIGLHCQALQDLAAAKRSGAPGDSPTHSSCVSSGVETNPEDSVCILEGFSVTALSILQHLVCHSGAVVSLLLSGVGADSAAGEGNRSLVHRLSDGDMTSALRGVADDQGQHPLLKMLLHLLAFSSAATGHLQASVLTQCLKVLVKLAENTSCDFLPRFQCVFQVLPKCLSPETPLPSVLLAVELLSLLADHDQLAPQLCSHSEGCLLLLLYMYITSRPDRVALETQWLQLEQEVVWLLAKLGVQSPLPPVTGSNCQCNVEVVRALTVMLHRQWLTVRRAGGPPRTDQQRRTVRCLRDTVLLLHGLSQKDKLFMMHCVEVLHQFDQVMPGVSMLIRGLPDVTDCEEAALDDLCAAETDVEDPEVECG
# Method: Test Example 1. Inhibitory Effect of Compounds of the Present Invention on ATR Enzyme
# The following method is used to determine the inhibitory effect of the compounds of the present invention on the ATR enzyme. The experimental method is briefly described as follows:
# 1. ATR enzyme (Eurofins Pharma Discovery Services, 14-953M)
# 2. GST-tagged P53 protein (Eurofins Pharma Discovery Services, 14-952M)
# 15 nM ATR enzyme, 80 nM P53 protein, 300 nM ATP (the final concentrations were 40 nM and 150 nM, respectively), and small molecule compounds of various concentrations (the final concentrations (nM) of the ten points were 2985.0, 895.5, 298.5, 110.56, 33.17, 11.06, 4.09, 1.23, 0.41 and 0.15, respectively, and the final dimethyl sulfoxide concentration was 0.498%) were mixed and incubated at room temperature for 90 minutes. 10 μL of 2× cocktail buffer was added to the mixture of ATR, compound and substrate in the assay plate (anti-phospho-p53-Eu and anti-GST-d2 were diluted in the assay buffer). The resulting mixture was centrifuged at 1000 rpm for 30 seconds, and incubated overnight at 4° C. in the dark (a total of 20 μl in each well). The FRET signal (endpoint) was measured in the Envision instrument (HTRF 665/612 ratio was calculated at 665 nm emission and 612 nm emission). Data were processed using GraphPad software.
# The inhibitory activity of the compounds of the present invention on the ATR enzyme can be determined by the test described above, and the measured IC50 values are shown in Table 1.
SMILES,IC50 (SNU-601 cells),IC50 (ATR enzyme)
C[C@@H]1COCCN1c1cc(-c2ccc(N3CCCCC3=O)c(F)c2)c2cnn(-c3cc[nH]n3)c2n1 [Example 191],10 to 100 nM,–
C#CC1CCC(O)(c2cc(N3CCOC[C@H]3C)nc3c2cnn3-c2cc[nH]n2)C1 (stereo partly shown) [Example 270],–,≤ 10 nM
COc1cc(-c2cc(N3CCOC[C@H]3C)nc3c2cnn3-c2cc[nH]n2)ncc1NC(=O)N1CCCC1 [Example 247],–,10 to 50 nM
"C[C@@H]1COCCN1c1cc(C#CC2(O)CCN(c3cccc(F)c3)CC2)c2cnn(-c3ccn[nH]3)c2n1 [Compound 12, (R)-1-(3-fluorophenyl)-4-((6-(3-methylmorpholinyl)-1-(1H-pyrazolyl-5-yl)-1H-pyrazolyl[3,4-b]pyridin-4-yl)ethynyl)piperidin-4-ol]",–,10 to 50 nM
C[C@@H]1COCCN1c1cc(C#CC(=O)N2CC(O)C2)c2cnn(-c3cc[nH]n3)c2n1 [Example 86],–,10 to 50 nM
C[C@@H]1COCCN1c1cc(C#Cc2c[nH]cn2)c2cnn(-c3cc[nH]n3)c2n1 [Example 78],–,≤ 10 nM
C[C@@H]1COCCN1c1cc(N2CC(c3ccn(C)n3)C2)c2cnn(-c3cc[nH]n3)c2n1 [Example 267],–,10 to 50 nM
C[C@@H]1COCCN1c1cc(-c2ccc(NC(=O)CCO)cc2)c2cnn(-c3cc[nH]n3)c2n1 [Example 152],–,≤ 10 nM
C[C@@H]1COCCN1c1cc(-c2ccc(N3CCCCCC3=O)cc2)c2cnn(-c3cc[nH]n3)c2n1 [Example 153],10 to 100 nM,–
C[C@@H]1COCCN1c1cc(C#CC2CCCOC2)c2cnn(-c3ccn[nH]3)c2n1 (stereo partly shown) [Example 210],–,≤ 10 nM
C[C@@H]1COCCN1c1cc(-c2ccc(N(C)C(=O)N3CCCC3)cc2)c2cnn(-c3cc[nH]n3)c2n1 [Example 223],–,≤ 10 nM
C[C@@H]1COCCN1c1cc(C#CC2(O)COC2)c2cnn(-c3cc[nH]n3)c2n1 [Example 84],–,≤ 10 nM
C[C@@H]1COCCN1c1cc(-c2ccc(NC(=O)c3ccncn3)cc2)c2cnn(-c3cc[nH]n3)c2n1 [Example 165],10 to 100 nM,–
C[C@@H]1COCCN1c1cc(-c2ccc(NC(=O)C(F)F)cc2)c2cnn(-c3cc[nH]n3)c2n1 [Example 217],10 to 100 nM,–
C[C@@H]1COCCN1c1cc(-c2ccc(NC(=O)C3CCN(C)C3)cc2)c2cnn(-c3cc[nH]n3)c2n1 (stereo partly shown) [Example 213],10 to 100 nM,–
C[C@@H]1COCCN1c1cc(-c2cc(NC(=O)C3CC3)[nH]n2)c2cnn(-c3cc[nH]n3)c2n1 [Example 253],–,10 to 50 nM
C[C@@H]1COCCN1c1cc(-c2ccc(NC(=O)N3CCCC3)cn2)c2cnn(-c3cc[nH]n3)c2n1 [Example 249],–,≤ 10 nM
C[C@@H]1COCCN1c1cc(-c2ccc(NC(=O)C34CC5CC(CC(C5)C3)C4)cc2)c2cnn(-c3cc[nH]n3)c2n1 [Example 232],–,10 to 50 nM
C[C@@H]1COCCN1c1cc(-c2ccc(N3CC4CCC(O4)C3=O)cc2F)c2cnn(-c3cc[nH]n3)c2n1 (stereo partly shown) [Example 199],10 to 100 nM,–
C[C@@H]1COCCN1c1cc(C#CCN2CC3(CNC3)C2)c2cnn(-c3cc[nH]n3)c2n1 [Example 205],–,10 to 50 nM
C[C@@H]1COCCN1c1cc(C2CN(C(=O)NC3CC3)C2)c2cnn(-c3cc[nH]n3)c2n1 [Example 268],–,10 to 50 nM
"C#CC1CCC(c2cc(N3CCOC[C@H]3C)nc3c2cnn3-c2ccn[nH]2)CC1 (stereo partly drawn) [Example 202, (R)-4-(4-(4-ethynylcyclohexyl)-1-(1H-pyrazol-5-yl)-1H-pyrazolo[3,4-b]pyridin-6-yl)-3-methylmorpholine]",–,≤ 10 nM
C[C@@H]1COCCN1c1cc(C#CC2CCCNC2)c2cnn(-c3ccn[nH]3)c2n1 (stereo partly shown) [Example 209],10 to 100 nM,–
C[C@@H]1COCCN1c1cc(-c2ccc(-c3ccnn3C)cc2F)c2cnn(-c3cc[nH]n3)c2n1 [Example 258],10 to 100 nM,–
C#CC1CC=C(c2cc(N3CCOC[C@H]3C)nc3c2cnn3-c2cc[nH]n2)CC1 (stereo partly shown) [Example 201],–,≤ 10 nM

SMILES,IC50 (SNU-601 cells),IC50 (ATR enzyme)
C[C@@H]1COCCN1c1cc(-c2ccc(N(C)C(=O)N3CCCC3)cc2F)c2cnn(-c3cc[nH]n3)c2n1 [Example 192],–,≤ 10 nM
C[C@@H]1COCCN1c1cc(-c2ccc(N3CC4(CCN(Cc5ccccc5)C4)CC3=O)cc2)c2cnn(-c3cc[nH]n3)c2n1 (stereo partly shown) [Example 203],–,≤ 10 nM
C[C@@H]1COCCN1c1cc(-c2ccc(N3CCCC3=O)cc2)c2cnn(-c3cc[nH]n3)c2n1 [Example 212],–,≤ 10 nM
CC(=O)N1CCC(C#Cc2cc(N3CCOC[C@H]3C)nc3c2cnn3-c2cc[nH]n2)C1 (stereo partly shown) [Example 80],–,10 to 50 nM
C[C@@H]1COCCN1c1cc(-c2ccc(NC(=O)N3CCCC3)cc2)c2cnn(-c3cc[nH]n3)c2n1 [Example 207],10 to 100 nM,–
C[C@@H]1COCCN1c1cc(-c2ccc(N(C)C(=O)N3CCCCC3)cc2)c2cnn(-c3cc[nH]n3)c2n1 [Example 230],–,10 to 50 nM
COc1cc(NC(=O)N2CCCC2)ncc1-c1cc(N2CCOC[C@H]2C)nc2c1cnn2-c1cc[nH]n1 [Example 248],–,10 to 50 nM
Cc1cc(-c2cc(N3CCOC[C@H]3C)nc3c2cnn3-c2ccn[nH]2)cc(C)c1N(C)C(=O)c1ccncc1 [Example 184],–,≤ 10 nM
C[C@@H]1COCCN1c1cc(C2CN(c3ccnn3C)C2)c2cnn(-c3cc[nH]n3)c2n1 [Example 269],–,≤ 10 nM
CC(=O)Nc1ccccc1-c1cc(N2CCOC[C@H]2C)nc2c1cnn2-c1cc[nH]n1 [Example 220],–,10 to 50 nM
C[C@@H]1COCCN1c1cc(-c2ccc(NC(=O)C3CCOCC3)cc2)c2cnn(-c3cc[nH]n3)c2n1 [Example 155],10 to 100 nM,–
C[C@@H]1COCCN1c1cc(-c2ccc3c(c2)CCCN3C(=O)c2cccnc2)c2cnn(-c3cc[nH]n3)c2n1 [Example 225],–,≤ 10 nM
C[C@@H]1COCCN1c1cc(-c2ccc3c(c2)CCN3C(=O)c2ccncc2)c2cnn(-c3cc[nH]n3)c2n1 [Example 183],10 to 100 nM,–
"C[C@@H]1COCCN1c1cc(C#CC2(O)CCC3(CCOCC3)CC2)c2cnn(-c3ccn[nH]3)c2n1 [Compound 14, (R)-9-((6-(3-methylmorpholinyl)-1-(1H-pyrazol-5-yl)-1H-pyrazole[3,4-b]pyridin-4-yl)ethynyl)-3-oxaspiro[5.5]undecan-9-ol]",–,10 to 50 nM
C[C@@H]1COCCN1c1cc(-c2ccc(N(C)C(=O)N3CCCC3)nc2)c2cnn(-c3cc[nH]n3)c2n1 [Example 227],–,10 to 50 nM
C[C@@H]1COCCN1c1cc(-c2ccc(N3C(=O)CCCC3CO)cc2)c2cnn(-c3cc[nH]n3)c2n1 (stereo partly shown) [Example 60],–,≤ 10 nM
"C[C@@H]1COCCN1c1cc(C#CCN(C)C)c2cnn(-c3cc[nH]n3)c2n1 [Example 18, (R)-N, N-Dimethyl-3-(6-(3-methylmorpholine)-1-(1H-pyrazol-3-yl)-1H-pyrazoline[3,4-b]pyridin-4-yl)propyl-2-yn-1-amine]",–,10 to 50 nM
C[C@@H]1COCCN1c1cc(-c2ccc(N3CCCCC3=O)cc2C(F)(F)F)c2cnn(-c3cc[nH]n3)c2n1 [Example 242],10 to 100 nM,–
C[C@@H]1COCCN1c1cc(-c2ccc(NC(=O)C3CNC3)cc2)c2cnn(-c3cc[nH]n3)c2n1 [Example 156],–,≤ 10 nM
C#Cc1cc(N2CCOC[C@H]2C)nc2c1cnn2-c1cc[nH]n1 [Example 17],–,10 to 50 nM
C[C@@H]1COCCN1c1cc(N2CC(c3ccnn3C)C2)c2cnn(-c3cc[nH]n3)c2n1 [Example 266],–,10 to 50 nM
C[C@@H]1COCCN1c1cc(-c2ccc(NC(=O)N3CCCCC3)cc2)c2cnn(-c3cc[nH]n3)c2n1 [Example 229],–,≤ 10 nM
C[C@@H]1COCCN1c1cc(C#Cc2ccnc3[nH]ccc23)c2cnn(-c3cc[nH]n3)c2n1 [Example 77],–,10 to 50 nM
C[C@@H]1COCCN1c1cc(-c2ccc(NC(=O)NC3CC4CCC(C3)N4)cc2)c2cnn(-c3cc[nH]n3)c2n1 (stereo partly shown) [Example 231],–,≤ 10 nM
